Where “and” joins values, the source holds several entries; their conditions need not be identical. Identical values can stand only once.
What was measured:
DSS-induced colitis = DSS-induced colitis in mice: TCS with or without GUSi (colon length, histology, FACS, qRT-PCR); type: in vivo
From the text: (§1) After another 3 weeks, the mice were stimulated with 2% DSS (molecular weight = 36–50 KDa, MP Biomedicals, Solon, OH) in drinking water for 6 days to induce colitis. At end of the experiment, the mice were sacrificed for analysis.
(§2) Total RNA of colon tissues and MC38 cells were isolated using Trizol reagent (Ambion) according to the manufacturer’s instruction. RNA was reverse transcribed into cDNA using the High Capacity cDNA Reverse Transcription kit (Applied Biosystem) according to the manufacturer’s instructions. In all, 20 μL PCR reactions were prepared using the Maxima SYBR Green Master Mix (Thermo Fisher Scientific), and qPCR was carried out using a DNA Engine Opticon System (Bio-Rad Laboratories). Mouse-specific primer sequences (Thermo Fisher Scientific) used to detect inflammatory biomarkers are listed in Supplementary Table S6. Gapdh expression was used as an internal control.
Distal colon tissues were dissected, washed with cold PBS, and digested with Hank’s balanced salt solution (HBSS, Lonza) supplemented with 1 mM dithiothreitol (DTT) and 5 mM EDTA at 4 °C (colon […] cells). The released cells were stained with FITC-conjugated anti-mouse CD45 (BioLegend, Clone: 30-F11), PerCP/Cy5.5-conjugated anti-mouse F4/80 (BioLegend, Clone: BM8), and PE/Cy7-conjugated anti-mouse Ly-6G/Ly-6C (GR-1) (BioLegend, Clone: RB6-8C5) with a 1:100 diluted solution. Cells were stained with Zombie Violet^TM dye (Zombie Violet^TM Fixable Viability Kit; BioLegend) according to the manufacturer’s instructions to exclude dead cells. Gating and cell identification strategies are as follows: briefly, cell doublets and clumps were eliminated using FSC-A gating and debris was eliminated using FSC-A vs SSC-A. Dead cells were gated out using Zombie Violet™ dye. Flow cytometry data were acquired on a BD LSR Fortessa^TMcell analyzer (Becton Dickinson, Franklin Lakes, NJ) and analyzed using FlowJo software (FlowJo, LLC). Gating strategies used for the identification of major immune cell populations are shown in Supplementary Fig. S17.
The dissected colon tissues were fixed in 10% neutral buffered formalin (Thermo Fisher Scientific) for 48 h. After dehydration, the tissues were embedded in paraffin and sliced ([…]) by Rotary Microtome (Thermo Fisher Scientific). The slices were dewaxed in serial xylene and rehydrated through ethanol solutions, stained with hematoxylin and eosin (Sigma-Aldrich), and images were obtained under 200× magnification (BZ-X700 microscope, Keyence, Itasca, IL). The histologic scores were evaluated by a blinded observer according to the following measures: crypt architecture, degree of inflammatory cell infiltration, muscle thickening, goblet cell depletion, and crypt abscess. The histologic damage score is the sum of each individual score.

[1] = Target engagement: GUSi in colon tissue and TCS to TCS-G ratio in colon digesta by LC-MS/MS; type: in vivo, mice; settings: for GUSi in colon tissue: GUSi-treated mice, individual mice
Procedure: as §1
Fig. S15. Orally dosed GUSi reaches the mouse colon and suppresses conversion of TCS -G to TCS. a.
mice were stimulated with DSS to induce colitis. The final GUSi was dosed on day 25 and mice were sacrificed
for analysis on day 27. b. GUSi is detected in the mouse colon 2 days after the final dose of the inhibitor. c.
GUSi treatment reduces the ratio of TCS to TCS-G in colon digesta.
per group. NA: no TCS or TCS-G detected.

[2] = Antibiotic suppression of gut microbiota: TCS colonic metabolism in mice (80 ppm TCS diet, 4 weeks); type: in vivo; settings: 80 ppm TCS via diet 4 weeks; antibiotic cocktail vs none
From the text: This antibiotic composition was used in previous studies by others[20],[21] and us[22],[23]. […] After another 4 weeks, the mice were sacrificed, and their tissues were collected for LC-MS/MS analysis.

[3] = TCS colonic metabolism in conventional vs germ-free Swiss Webster mice; type: in vivo; settings: 6 h after oral gavage of 8 mg/kg TCS, individual mice
MC38 cells = test: Inflammatory response of MC38 intestinal epithelial cells (Il-6 RT-qPCR, IL-6 ELISA); type: cell-based, mouse
Procedure: MC38 intestinal epithelial cells were cultured in Dulbecco’s Modified Eagle Medium (DMEM) supplemented with 10% fetal bovine serum (FBS) and incubated at 37 °C under an atmosphere of 5% CO2. MC38 cells were seeded at 20% confluency and left to settle overnight. Cells were then treated with either 1 μM TCS, TCS-G, or vehicle (DMSO). After 48 h, cells were harvested for RT-qPCR analysis. Cell medium was collected for ELISA analysis using the CBA Mouse Inflammation Kit (BD Sciences) according to the manufacturer’s instructions, and data were acquired using a BD LSR Fortessa flow cytometer (BD Biosciences) and analyzed using FlowJo software (Treestar).
as §2
a. Cultured murine intestinal epithelial MC38 cells were treated with 1 μM of TCS or TCS-G for 48 h prior to
studying inflammatory responses. b. TCS increases the expression of Il-6, which encodes the pro-inflammatory
n = 3 per group from three independent experiments, * P < 0.05, ** P < 0.01, *** P < 0.001.

[4] = LC-MS/MS profiling of TCS metabolism in mice (TCS via diet for 4 weeks); settings: for concentration of TCS, TCS-G, TCS-Sulfate: individual mice
[5] = Antibiotic suppression of gut microbiota: kinetics of TCS colonic metabolism after one-time oral gavage; settings: within the 24-h period; 8 mg/kg TCS oral gavage
[6] = DSS colitis mice, FACS, individual animals, Fig.5d
[7] = DSS colitis mice, gene expression, individual animals, Fig.5e

## C1CCc2c(c(N3CCOCC3)nc3sc4c(N5CCNCC5)nnnc4c23)C1 [GUSi, UNC10201652]
DSS-induced colitis; 1 mg/kg GUSi via oral gavage, 80 ppm TCS via diet, DSS-induced colitis, all measures
  colitis-enhancing effects of TCS with co-administration of GUSi: eliminated
DSS-induced colitis; [6]
  cd45+(%): 3.37% and 1.44% and 2.8% and 3.35% and 3.49% and 6.62% and 4.63% and 3.22%
  f4/80+ (%): 5.88% and 5.56% and 2.33% and 7.14% and 0% and 1.72%
  gr-1+ (%): 0% and 2.94% and 5.56% and 1.43% and 2.13%
DSS-induced colitis; [7]
  Il-6: 0.5774 and 0.763 and 0.8366 and 0.5822 and 0.577 and 0.6095
  Il-17: 0.5948 and 0.2298 and 0.792 and 0.6818 and 0.4596 and 0.7005
  Il-23: 0.7347 and 0.9268 and 1.245 and 0.9397 and 0.6326 and 1.199
  Mcp1: 0.841 and 0.7995 and 1.048 and 0.7621 and 1.517 and 1.4734 and 0.8163
  Tnf-α: 1.652 and 0.2802 and 0.2939 and 0.2088 and 0.6209 and 0.7192
DSS-induced colitis; DSS colitis mice, histology score, individual animals, Fig.5c
  HE: 4 and 3 and 6
DSS-induced colitis; DSS colitis mice, individual animals, Fig.5b
  colon length (cm): 6.9 cm and 7.5 cm and 7.1 cm and 7.2 cm and 6.7 cm
[1]; 2 days after the final oral administration of GUSi (1 mg/kg)
  presence in colon tissues: detected
[1]; GUSi 1 mg/kg oral gavage, TCS via diet
  ratio of TCS to TCS-G in colon digesta: significantly reduced
[1]; TCS
  GUSi in colon tissue: 4.6 pmol/g and 5.3 pmol/g and 18.7 pmol/g and 4.5 pmol/g and 2.1 pmol/g and 0.7 pmol/g and 6.2 pmol/g and 5.7 pmol/g and 12 pmol/g and 5.4 pmol/g
[1]; Veh (no TCS)
  GUSi in colon tissue: 9 pmol/g and 9.3 pmol/g and 5.9 pmol/g and 9.8 pmol/g and 11.9 pmol/g and 9.9 pmol/g and 14 pmol/g and 8.6 pmol/g

## O=C(O)C1OC(Oc2cc(Cl)ccc2Oc2ccc(Cl)cc2Cl)C(O)C(O)C1O (stereo not drawn) [TCS-G, triclosan-glucuronide]
[2]
  change of concentration in the fecal content by antibiotic treatment: sixfold
[3]; CONV Swiss Webster mice
  tcs, tcs-G in colon digesta: 0.05 pmol/mg and 0.09 pmol/mg and 0.07 pmol/mg and 0.08 pmol/mg and 0.03 pmol/mg and 0.02 pmol/mg
[3]; GF Swiss Webster mice
  tcs, tcs-G in colon digesta: 3.55 pmol/mg and 2.97 pmol/mg and 3.05 pmol/mg and 2.08 pmol/mg and 2.61 pmol/mg
MC38 cells; 1 µM, 48 h
  Il-6 gene expression: does not
MC38 cells; MC38 cells, gene expression, replicates
  Il-6 (Fig. S16b): 1.072 and 0.7026 and 0.674 and 0.599 and 2.104 and 1.745 and 1.341 and 2.8489 and 1.88
MC38 cells; MC38 cells, protein, replicates
  IL-6 (Fig. S16c): 30.76 pg/mL and 26.1 pg/mL and 35.84 pg/mL and 30.49 pg/mL and 20.04 pg/mL and 13.78 pg/mL and 35.28 pg/mL and 36.12 pg/mL and 25.88 pg/mL
[4]; Cecum (digesta), 80 ppm TCS via diet 4 weeks
  concentration of TCS, TCS-G, TCS-Sulfate: 0.45 pmol/mg and 0.99 pmol/mg and 0.44 pmol/mg and 0.88 pmol/mg and 0.62 pmol/mg and 0.91 pmol/mg
[4]; Colon digesta, 1 ppm TCS in diet 4 weeks
  concentration of TCS, TCS-G, TCS-Sulfate: 0 pmol/mg
[4]; Colon digesta, 10 ppm TCS in diet 4 weeks
  concentration of TCS, TCS-G, TCS-Sulfate: 0.02 pmol/mg
[4]; Colon digesta, 80 ppm TCS in diet 4 weeks
  concentration of TCS, TCS-G, TCS-Sulfate: 0.1 pmol/mg
[4]; Feces, 1 ppm TCS in diet 4 weeks
  concentration of TCS, TCS-G, TCS-Sulfate: 0.06 pmol/mg
[4]; Feces, 10 ppm TCS in diet 4 weeks
  concentration of TCS, TCS-G, TCS-Sulfate: 0.13 pmol/mg
[4]; Feces, 80 ppm TCS in diet 4 weeks
  concentration of TCS, TCS-G, TCS-Sulfate: 0.35 pmol/mg and 0.43 pmol/mg
[4]; Heart, 80 ppm TCS via diet 4 weeks
  concentration of TCS, TCS-G, TCS-Sulfate: 2.11 pmol/mg and 1.13 pmol/mg and 0.90 pmol/mg and 1.39 pmol/mg
[4]; SI 1st section (digesta), 80 ppm TCS via diet 4 weeks
  concentration of TCS, TCS-G, TCS-Sulfate: 14.84 pmol/mg and 26.51 pmol/mg and 44.77 pmol/mg and 37.15 pmol/mg
[4]; SI 2nd section (digesta), 80 ppm TCS via diet 4 weeks
  concentration of TCS, TCS-G, TCS-Sulfate: 56.00 pmol/mg and 24.46 pmol/mg and 19.60 pmol/mg and 25.12 pmol/mg and 26.25 pmol/mg and 17.70 pmol/mg and 32.78 pmol/mg and 21.27 pmol/mg and 57.45 pmol/mg and 7.43 pmol/mg
[4]; SI 3rd section (digesta), 80 ppm TCS via diet 4 weeks
  concentration of TCS, TCS-G, TCS-Sulfate: 27.59 pmol/mg and 32.96 pmol/mg and 20.86 pmol/mg and 36.42 pmol/mg and 26.32 pmol/mg and 29.79 pmol/mg and 32.41 pmol/mg and 48.40 pmol/mg and 60.13 pmol/mg and 35.24 pmol/mg
[4]; SI 4th section (digesta), 80 ppm TCS via diet 4 weeks
  concentration of TCS, TCS-G, TCS-Sulfate: 46.08 pmol/mg and 59.25 pmol/mg and 48.99 pmol/mg and 79.17 pmol/mg and 94.49 pmol/mg and 43.76 pmol/mg and 46.26 pmol/mg and 23.11 pmol/mg and 8.33 pmol/mg and 51.24 pmol/mg
[4]; digesta of the 4th section of the mouse small intestine, 80 ppm TCS via diet 4 weeks
  share of TCS metabolites found: 55.4%
[4]; fecal content, 80 ppm TCS via diet 4 weeks
  share of TCS metabolites found: 0.7%
[5]
  increase of AUC in colon digesta by antibiotic treatment: ~ 200 fold
